Laboratory results: patent publication US10689340B2, “Substituted indoline derivatives as dengue viral replication inhibitors” (priority 2016, dated 2020)
pEC50: −log10 of the molar value. Structures can show the parent of a compound that is named as a salt. Where two headings read alike, the source gives them in different places.

Assays:
DENV-2 = settings: analogous DENV-2 antiviral assay, reported activity; cited from earlier work
DENV-2 16681 strain = assay: DENV-2 antiviral assay (eGFP fluorescence); assay type: cell-based, Dengue virus; settings: DENV-2 16681 eGFP, Vero cells, MOI 0.5, 3 days
Procedure: The antiviral activity of all the compounds of the invention was tested against the DENV-2 16681 strain which was labeled with enhanced green fluorescent protein (eGPF). The culture medium consists of minimal essential medium supplemented with 2% of heat-inactivated fetal calf serum, 0.04% gentamycin (50 mg/mL) and 2 mM of L-glutamine. Vero cells, obtained from ECACC, were suspended in culture medium and 25 μL was added to 384-well plates (2500 cells/well), which already contain the antiviral compounds. Typically, these plates contain a 5-fold serial dilution of 9 dilution steps of the test compound at 200 times the final concentration in 100% DMSO (200 nL). […] Finally, each plate contains wells which are assigned as virus controls (containing cells and virus in the absence of compound), cell controls (containing cells in the absence of virus and compound) and medium controls (containing medium in the absence of cells, virus and compounds). To the wells assigned as medium control, 25 μL of culture medium was added instead of Vero cells. Once the cells were added to the plates, the plates were incubated for 30 minutes at room temperature to allow the cells to distribute evenly within the wells. Next, the plates were incubated in a fully humidified incubator (37° C., 5% CO2) until the next day. Then, DENV-2 strain 16681, labeled with eGFP, was added at a multiplicity of infection (MOI) of 0.5. Therefore, 15 μL of virus suspension was added to all the wells containing test compound and to the wells assigned as virus control. In parallel, 15 μL of culture medium was added to the medium and cell controls. Next, the plates were incubated for 3 days in a fully humidified incubator (37° C., 5% CO2). At the day of the read out, the eGFP fluorescence was measured using an automated fluorescence microscope at 488 nm (blue laser). Using an in-house LIMS system, inhibition dose response curves for each compound were calculated and the half maximal effective concentration (EC50) was determined. Therefore, the percent inhibition (I) for every test concentration is calculated using the following formula: I=100*(ST-SCC)/(SVC-SCC); ST, SCC and SVC are the amount of eGFP signal in the test compound, cell control and virus control wells, respectively. The EC50, represents the concentration of a compound at which the virus replication is inhibited with 50%, as measured by a 50% reduction of the eGFP fluorescent intensity compared to the virus control. The EC50 is calculated using linear interpolation (Table 1).

in vitro [1] = settings: African green monkey
Vero cells [2] = settings: African green monkey
Vero cells [3] = assay: in vitro; assay type: cell-based; settings: African green monkey, 3 days
Procedure: (§1) The antiviral activity of the compounds of the invention was tested against DENV-1 strain TC974#666 (NCPV), DENV-2 strain 16681, DENV-3 strain H87 (NCPV) and DENV-4 strain H241 (NCPV) in a RT-qPCR assay. Therefore, Vero cells were infected with either DENV-1, or -2, or -3, or -4 in the presence or absence of test compounds. At day 3 post-infection, the cells were lysed and cell lysates were used to prepare cDNA of both a viral target (the 3′UTR of DENV; Table 2) and a cellular reference gene (β-actin, Table 2). Subsequently, a duplex real time PCR was performed on a Lightcycler480 instrument. The generated Cp value is inversely proportional to the amount of RNA expression of these targets. Inhibition of DENV replication by a test compound results in a shift of Cp's for the 3′UTR gene. On the other hand, if a test compound is toxic to the cells, a similar effect on β-actin expression will be observed. […] In addition, CC50 values are determined based on the Cp values acquired for the housekeeping gene β-actin. […]
(§2) Using the LightCycler software and an in-house LIMS system, dose response curves for each compound were calculated and the half maximal effective concentration (EC50) and the half maximal cytotoxic concentration (CC50) were determined (Tables 5-8).

in vitro [4] = assay type: cell-based; settings: African green monkey, CC50
Procedure: as §1, §2

DENV-1 strain TC974#666 = assay: Tetravalent RT-qPCR assay, serotype 1; assay type: cell-based; settings: Dengue virus, DENV1, Vero, 72 h
Procedure: (§3) The antiviral activity of the compounds of the invention was tested against DENV-1 strain TC974#666 (NCPV), DENV-2 strain 16681, DENV-3 strain H87 (NCPV) and DENV-4 strain H241 (NCPV) in a RT-qPCR assay. Therefore, Vero cells were infected with either DENV-1, or -2, or -3, or -4 in the presence or absence of test compounds. At day 3 post-infection, the cells were lysed and cell lysates were used to prepare cDNA of both a viral target (the 3′UTR of DENV; Table 2) and a cellular reference gene (β-actin, Table 2). Subsequently, a duplex real time PCR was performed on a Lightcycler480 instrument. The generated Cp value is inversely proportional to the amount of RNA expression of these targets. Inhibition of DENV replication by a test compound results in a shift of Cp's for the 3′UTR gene. On the other hand, if a test compound is toxic to the cells, a similar effect on β-actin expression will be observed. The comparative ΔΔCp method is used to calculate EC50, which is based on the relative gene expression of the target gene (3′UTR) normalized with the cellular housekeeping gene (β-actin). In addition, CC50 values are determined based on the Cp values acquired for the housekeeping gene β-actin.
(§4) The culture medium consisted of minimal essential medium supplemented with 2% of heat-inactivated fetal calf serum, 0.04% gentamycin (50 mg/mL) and 2 mM of L-glutamine. Vero cells, obtained from ECACC, were suspended in culture medium and 75 μL/well was added in 96-well plates (10000 cells/well), which already contain the antiviral compounds. […] In addition, each plate contains wells which are assigned as virus controls (containing cells and virus in the absence of compound) and cell controls (containing cells in the absence of virus and compound). Once the cells were added in the plates, the plates were incubated in a fully humidified incubator (37° C., 5% CO2) until the next day. Dengue viruses serotype-1, -2, -3 and -4 were diluted in order to obtain a Cp of ˜22-24 in the assay. Therefore, 25 μL of virus suspension was added to all the wells containing test compound and to the wells assigned as virus control. In parallel, 25 μL of culture medium was added to the cell controls. Next, the plates were incubated for 3 days in a fully humidified incubator (37° C., 5% CO2). After 3 days, the supernatant was removed from the wells and the cells were washed twice with ice-cold PBS (˜100 μL). The cell pellets within the 96-well plates were stored at −80° C. for at least 1 day. Next, RNA was extracted using the Cells-to-CT^Tm lysis kit, according to the manufacturer's guideline (Life Technologies). The cell lysates can be stored at −80° C. or immediately used in the reverse transcription step.
(§5) In preparation of the reverse transcription step, mix A (table 3A) was prepared and 7.57 μL/well was dispensed in a 96-well plate. After addition of 5 μL of the cell lysates, a five minute denaturation step at 75° C. was performed (table 3B). Afterwards, 7.43 μL of mix B was added (table 3C) and the reverse transcription step was initiated (table 3D) to generate cDNA.
(§6) Finally, a RT-qPCR mix was prepared, mix C (table 4A), and 22.02 μL/well was dispensed in 96-well LightCycler qPCR plates to which 3 μL of cDNA was added and the qPCR was performed according to the conditions in table 4B on a LightCycler 480.
as §2

DENV-2 strain 16681 = assay: Tetravalent RT-qPCR assay, serotype 2; assay type: cell-based; settings: Dengue virus, DENV2, 72 h; RT-qPCR serotype 2 16681, Protocol A, Vero cells, day 3
Procedure: as §3, §4, §5, §6, §2

DENV-3 strain H87 = assay: Tetravalent RT-qPCR assay, serotype 3; assay type: cell-based; settings: Dengue virus, DENV3, 72 h; RT-qPCR serotype 3 H87, Protocol A, Vero cells, day 3
Procedure: as §3, §4, §5, §6, §2

DENV-4 strain H241 = assay: Tetravalent RT-qPCR assay, serotype 4; assay type: cell-based; settings: Dengue virus, DENV4, 72 h; RT-qPCR serotype 4 H241, Protocol A, Vero cells, day 3
Procedure: as §3, §4, §5, §6, §2

Compound: CNC(=O)c1cccc(NC(C(=O)c2c[nH]c3ccccc23)c2ccccc2)c1 (stereo not drawn) [(170) of WO-2013/045516]
- pEC50 (DENV-2): 6.36

Compound: COc1cccc(NC(C(=O)N2CCc3ccccc32)c2ccccc2)c1 (stereo not drawn) [(56) of WO-2013/045516]
- pEC50 (DENV-2): 6.35

Compound: COc1cc(NC(C(=O)N2CCc3ccc(C(F)(F)F)cc32)c2ccc(Cl)cc2)cc(OCCCC(=O)O)c1 (racemic) [Compound 3, 4-(3-((1-(4-chlorophenyl)-2-oxo-2-(6-(trifluoromethyl)indolin-1-yl)ethyl)amino)-5-methoxyphenoxy)butanoic acid]
- pEC50 (DENV-2 16681 strain; Dengue virus, DENV2, Vero, 72 h): 9.32
- CC50 (in vitro [1]): 13 µM
- melting point: 192 °C

Compound: COc1cc(NC(C(=O)N2CCc3cc(OC)c(C(F)(F)F)cc32)c2ccc(Cl)cc2)cc(OCCCC(=O)O)c1 (racemic) (as salt: HCl) [Compound 5, 4-(3-((1-(4-chlorophenyl)-2-(5-methoxy-6-(trifluoromethyl)indolin-1-yl)-2-oxoethyl)amino)-5-methoxyphenoxy)butanoic Acid]
- melting point: 130 °C

Compound: COc1cc(NC(C(=O)N2CCc3ccc(C(F)(F)F)cc32)c2ccc(Cl)cc2OC)cc(OCCCC(=O)O)c1 (single isomer, unassigned) [Compound 6B]
- CC50 (Vero cells [2]): 13 µM
- pEC50 (DENV-2 16681 strain): 9.89
- CC50 (Vero cells [3]): > 2.5 µM
- CC50 at 3 days (in vitro [4]): > 2.5 µM
- pEC50 (DENV-1 strain TC974#666): 9.33
- pEC50 (DENV-2 strain 16681): 9.82
- pEC50 (DENV-3 strain H87): 8.77
- pEC50 (DENV-4 strain H241): 7.80

Compound: COc1cc(NC(C(=O)N2CCc3ccc(OC(F)(F)F)cc32)c2ccc(Cl)cc2OC)cc(OCCCC(=O)O)c1 (racemic) (as salt: HCl) [Compound 8, 4-(3-((1-(4-chloro-2-methoxyphenyl)-2-oxo-2-(6-(trifluoro-methoxy)indolin-1-yl)ethyl)amino)-5-methoxyphenoxy)butanoic acid]
- melting point: 139 °C
